# pIC50: −log10 of the molar value.
# Legend:
# Renin [1] = molecular target: T1, Renin (Homo sapiens, UniProt P00797); format: cell-free, Plasma
# T1 sequence (P00797 whole entry): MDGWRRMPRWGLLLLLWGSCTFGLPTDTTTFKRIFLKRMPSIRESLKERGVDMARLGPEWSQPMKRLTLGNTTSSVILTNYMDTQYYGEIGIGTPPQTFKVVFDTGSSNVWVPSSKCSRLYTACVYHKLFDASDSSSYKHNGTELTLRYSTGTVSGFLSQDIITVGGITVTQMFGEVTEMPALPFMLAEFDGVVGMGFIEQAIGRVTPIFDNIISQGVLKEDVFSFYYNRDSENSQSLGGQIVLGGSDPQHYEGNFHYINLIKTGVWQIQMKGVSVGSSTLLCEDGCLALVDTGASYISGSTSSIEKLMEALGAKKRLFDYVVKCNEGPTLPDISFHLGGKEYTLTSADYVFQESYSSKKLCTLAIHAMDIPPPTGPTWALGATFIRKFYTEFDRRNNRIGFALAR
# Renin [2] = molecular target: T1, Renin; assay: In vitro activity against human renin (pH 6.0)
# [3] = Average peak plasma drug concentration after id dose of 10 mg/kg in ferrets(Plasma samples collected from portal blood).; conditions: ferret
# [4] = Partition coefficient (logD6.5); conditions: octanol/water, pH 6.5
# [5] = Average peak plasma drug concentration after iv dose of 0.3 mg/kg in ferrets.; conditions: ferret
# [6] = Average peak plasma drug concentration after id dose of 10 mg/kg in ferrets(Plasma samples collected from arterial blood).; conditions: ferret
# [7] = Bioavailability in ferret; conditions: in vivo
# Mustela putorius furo [8] = assay: Average area under curve value dosed at 0.3 mg/kg, iv in ferrets.; conditions: ferret, in vivo
# Mustela putorius furo [9] = assay: Average area under curve value dosed at 10 mg/kg, id in ferrets.; conditions: ferret, in vivo, other
# [10] = Partition coefficient (logD7.4); conditions: octanol/water, pH 7.4
Compound,pIC50 (Renin [1]),pIC50 (Renin [2]),logD [4],logD [10],further results
CC(C)[C@H](C[C@H](O)[C@H](CC1CCCCC1)NC(=O)[C@H](Cc1cnc[nH]1)NC(=O)[C@H](Cc1ccccc1)NC(=O)OC(C)(C)C)NC(=O)OCCCN(C)C,7.77,8.55,–,–,–
CC(C)[C@H](C[C@H](O)[C@H](CC1CCCCC1)NC(=O)[C@H](Cc1c[nH]cn1)NC(=O)[C@H](Cc1ccccc1)NC(=O)OC(C)(C)C)NS(=O)(=O)C(C)C,–,7.17,–,–,–
CCCC[C@H](O[C@@H](Cc1ccccc1)C(=O)N1CCC(OCOC)CC1)C(=O)N[C@@H](CC1CCCCC1)[C@@H](O)C[C@H](C(=O)NCCCN(C)C)C(C)C,8.23,–,2.3,3.1,Cmax ([3]; plasma (from portal blood)): 4990 ng/mL; Cmax ([5]; plasma): 2990 ng/mL; Cmax ([6]; plasma (from arterial blood)): 5050 ng/mL; bioavailability [7]: 50%; Average AUC (Mustela putorius furo [8]): 573 ng·h/mL; Average AUC (Mustela putorius furo [9]): 9670 ng·h/mL
CCCC[C@H](O[C@@H](Cc1ccccc1)C(=O)N1CCC(OCOC)CC1)C(=O)N[C@@H](CC1CCCCC1)[C@@H](O)C[C@H](NC(=O)OCCC(C)C)C(C)C,7.25,8.30,–,–,–
CCCC[C@H](O[C@@H](Cc1ccccc1)C(=O)N1CCC(OCOC)CC1)C(=O)N[C@@H](CC1CCCCC1)[C@@H](O)C[C@H](NC(=O)OCCCN(C)C)C(C)C,7.92,8.62,2.9,3.8,–
CCCC[C@H](O[C@@H](Cc1ccccc1)C(=O)N1CCC(OCOC)CC1)C(=O)N[C@@H](CC1CCCCC1)[C@@H](O)C[C@H](NC(=O)NCCC)C(C)C,7.80,8.62,–,–,–
CCCC[C@H](O[C@@H](Cc1ccccc1)C(=O)N1CCC(OCOC)CC1)C(=O)N[C@@H](CC1CCCCC1)[C@@H](O)C[C@H](C(=O)N1CCCN(C)CC1)C(C)C,7.10,7.77,3.7,–,–
CCCCC(=O)N[C@@H](C[C@H](O)[C@H](CC1CCCCC1)NC(=O)[C@H](Cc1c[nH]cn1)NC(=O)[C@H](Cc1ccccc1)NC(=O)OC(C)(C)C)C(C)C,6.70,8.22,–,–,–
CCCC[C@H](O[C@@H](Cc1ccccc1)C(=O)N1CCC(OCOC)CC1)C(=O)N[C@@H](CC1CCCCC1)[C@@H](O)C[C@H](NC(=O)OCCN1CCCC1)C(C)C,7.89,8.60,–,–,–
CC(C)[C@H](C[C@H](O)[C@H](CC1CCCCC1)NC(=O)[C@H](Cc1c[nH]cn1)NC(=O)[C@H](Cc1ccccc1)NC(=O)OC(C)(C)C)NS(C)(=O)=O,–,7.55,–,–,–
CCCC[C@H](O[C@@H](Cc1ccccc1)C(=O)N1CCC(OCOC)CC1)C(=O)N[C@@H](CC1CCCCC1)[C@@H](O)C[C@H](NC(=O)OCCN(C)C)C(C)C,8.08,–,3.6,> 4,Cmax ([3]; plasma (from portal blood)): 1540 ng/mL; Cmax ([5]; plasma): 1010 ng/mL; Cmax ([6]; plasma (from arterial blood)): 1190 ng/mL; bioavailability [7]: 36%; Average AUC (Mustela putorius furo [8]): 232 ng·h/mL; Average AUC (Mustela putorius furo [9]): 2780 ng·h/mL
CCCC[C@H](O[C@@H](Cc1ccccc1)C(=O)N1CCC(OCOC)CC1)C(=O)N[C@@H](CC1CCCCC1)[C@@H](O)C[C@H](NS(C)(=O)=O)C(C)C,7.21,8.37,–,–,–
CCCC[C@H](O[C@@H](Cc1ccccc1)C(=O)N1CCC(OCOC)CC1)C(=O)N[C@@H](CC1CCCCC1)[C@@H](O)C[C@H](N)C(C)C,–,6.96,–,–,–
CCCNC(=O)N[C@@H](C[C@H](O)[C@H](CC1CCCCC1)NC(=O)[C@H](Cc1c[nH]cn1)NC(=O)[C@H](Cc1ccccc1)NC(=O)OC(C)(C)C)C(C)C,7.08,8.57,–,–,–
CCCC[C@H](N[C@@H](Cc1ccccc1)C(=O)N1CCC(OCOC)CC1)C(=O)N[C@@H](CC1CCCCC1)[C@@H](O)C[C@H](C(=O)NCCCN1CCOCC1)C(C)C,–,–,3.9,4.5,Cmax ([3]; in vivo): 4350 ng/mL; Cmax ([5]; in vivo): 1310 ng/mL; Cmax ([6]; in vivo): 3490 ng/mL; bioavailability [7]: 34%; Average AUC (Mustela putorius furo [8]): 682 ng·h/mL; Average AUC (Mustela putorius furo [9]): 7700 ng·h/mL
CCCC[C@H](O[C@@H](Cc1ccccc1)C(=O)N1CCC(OCOC)CC1)C(=O)N[C@@H](CC1CCCCC1)[C@@H](O)C[C@H](C(=O)NCCC[N+](C)(C)[O-])C(C)C,8.30,–,–,–,–
CC(C)[C@H](C[C@H](O)[C@H](CC1CCCCC1)NC(=O)[C@H](Cc1c[nH]cn1)NC(=O)[C@H](Cc1ccccc1)NC(=O)OC(C)(C)C)NC(=O)OCc1ccccc1,–,7.96,–,–,–
CCCCC(=O)N[C@@H](C[C@H](O)[C@H](CC1CCCCC1)NC(=O)[C@H](CCCC)O[C@@H](Cc1ccccc1)C(=O)N1CCC(OCOC)CC1)C(C)C,7.28,–,–,–,–
CCCC[C@H](O[C@@H](Cc1ccccc1)C(=O)N1CCC(OCOC)CC1)C(=O)N[C@@H](CC1CCCCC1)[C@@H](O)C[C@H](C(=O)N(C)CCN(C)C)C(C)C,6.54,7.52,3.3,> 5,–
CCCC[C@H](O[C@@H](Cc1ccccc1)C(=O)N1CCC(OCOC)CC1)C(=O)N[C@@H](CC1CCCCC1)[C@@H](O)C[C@H](C(=O)N(C)CCCN(C)C)C(C)C,6.57,7.24,2.5,3.7,–
CC(C)[C@H](C[C@H](O)[C@H](CC1CCCCC1)NC(=O)[C@H](Cc1c[nH]cn1)NC(=O)[C@H](Cc1ccccc1)NC(=O)OC(C)(C)C)NC(=O)OCCN1CCCC1,7.55,8.57,–,–,–
CCCC[C@H](O[C@@H](Cc1ccccc1)C(=O)N1CCC(OCOC)CC1)C(=O)N[C@@H](CC1CCCCC1)[C@@H](O)C[C@H](C(=O)NCCN(C)C)C(C)C,8.24,8.54,3.3,4.3,–

# Further lines, with some results ahead:
pIC50 (Renin [1]),pIC50 (Renin [2]),logD [4],logD [10],Compound,further results
7.85,8.82,–,–,CCCC[C@H](O[C@@H](Cc1ccccc1)C(=O)N1CCC(OCOC)CC1)C(=O)N[C@@H](CC1CCCCC1)[C@@H](O)C[C@H](NC(=O)OCCC)C(C)C,–
7.77,8.89,–,–,CC(C)[C@H](C[C@H](O)[C@H](CC1CCCCC1)NC(=O)[C@H](Cc1c[nH]cn1)NC(=O)[C@H](Cc1ccccc1)NC(=O)OC(C)(C)C)NC(=O)OCCc1ccccn1,–
7.08,8.66,–,–,CCCC[C@H](O[C@@H](Cc1ccccc1)C(=O)N1CCC(OCOC)CC1)C(=O)N[C@@H](CC1CCCCC1)[C@@H](O)C[C@H](NC(=O)OCc1ccccc1)C(C)C,–
8.29,9.00,> 5,> 5,CCCC[C@H](O[C@@H](Cc1ccccc1)C(=O)N1CCC(OCOC)CC1)C(=O)N[C@@H](CC1CCCCC1)[C@@H](O)C[C@H](C(=O)NCCc1ccccn1)C(C)C,–
8.43,9.00,> 5,> 5,CCCC[C@H](O[C@@H](Cc1ccccc1)C(=O)N1CCC(OCOC)CC1)C(=O)N[C@@H](CC1CCCCC1)[C@@H](O)C[C@H](C(=O)NCCN1CCOCC1)C(C)C,Cmax ([3]; plasma (from portal blood)): 4350 ng/mL; Cmax ([5]; plasma): 1320 ng/mL; Cmax ([6]; plasma (from arterial blood)): 2770 ng/mL; bioavailability [7]: 45%; Average AUC (Mustela putorius furo [8]): 472 ng·h/mL; Average AUC (Mustela putorius furo [9]): 7080 ng·h/mL
7.40,9.05,2.7,3.4,CCCC[C@H](O[C@@H](Cc1ccccc1)C(=O)N1CCC(OCOC)CC1)C(=O)N[C@@H](CC1CCCCC1)[C@@H](O)C[C@H](NC(=O)OCCc1ccccn1)C(C)C,–
8.02,8.74,3.9,4.3,CCCC[C@H](N[C@@H](Cc1ccccc1)C(=O)N1CCC(OCOC)CC1)C(=O)N[C@@H](CC1CCCCC1)[C@@H](O)C[C@H](NC(=O)OCCN1CCOCC1)C(C)C,–
8.12,8.70,–,–,CCCC[C@H](N[C@@H](Cc1ccccc1)C(=O)N1CCC(OCOC)CC1)C(=O)N[C@@H](CC1CCCCC1)[C@@H](O)C[C@H](C(=O)NCCCn1ccnc1)C(C)C,–
7.80,8.77,–,–,CCCOC(=O)N[C@@H](C[C@H](O)[C@H](CC1CCCCC1)NC(=O)[C@H](Cc1cnc[nH]1)NC(=O)[C@H](Cc1ccccc1)NC(=O)OC(C)(C)C)C(C)C,–
8.33,8.89,–,–,CC(C)[C@H](C[C@H](O)[C@H](CC1CCCCC1)NC(=O)[C@H](Cc1cnc[nH]1)NC(=O)[C@H](Cc1ccccc1)NC(=O)OC(C)(C)C)NC(=O)OCCN1CCOCC1,–
7.92,8.64,–,–,CC(C)[C@H](C[C@H](O)[C@H](CC1CCCCC1)NC(=O)[C@H](Cc1c[nH]cn1)NC(=O)[C@H](Cc1ccccc1)NC(=O)OC(C)(C)C)NC(=O)OCCN(C)C,–
8.21,8.68,2.2,2.8,CCCC[C@H](N[C@@H](Cc1ccccc1)C(=O)N1CCC(OCOC)CC1)C(=O)N[C@@H](CC1CCCCC1)[C@@H](O)C[C@H](C(=O)NCCCN(C)C)C(C)C,–
8.46,8.89,–,–,CCCC[C@H](O[C@@H](Cc1ccccc1)C(=O)N1CCC(OCOC)CC1)C(=O)N[C@@H](CC1CCCCC1)[C@@H](O)C[C@H](C(=O)NCCC[N+]1([O-])CCOCC1)C(C)C,–
–,8.74,> 4.5,> 4.5,CCCCNC(=O)[C@@H](C[C@H](O)[C@H](CC1CCCCC1)NC(=O)[C@H](CCCC)N[C@@H](Cc1ccccc1)C(=O)N1CCC(OCOC)CC1)C(C)C,Cmax ([3]; plasma (from portal blood)): 3220 ng/mL; Cmax ([5]; plasma): 2230 ng/mL; Cmax ([6]; plasma (from arterial blood)): 1540 ng/mL; bioavailability [7]: 16%; Average AUC (Mustela putorius furo [8]): 673 ng·h/mL; Average AUC (Mustela putorius furo [9]): 3530 ng·h/mL
